From patent US8530652B2, “Pyrrolopyrazoles, potent kinase inhibitors” (Agouron Pharmaceuticals, Inc., priority 2005, dated 2013)

Assays:
[1] = target: PAK4 kinase activity in whole cells (TR-293-KDG, modified HEK 293 overexpressing GEF-H1b and PAK4 KD) (Homo sapiens (Human), UniProt O96013); experiment: PAK4 cellular assay: sandwich ELISA of PAK4-dependent phosphorylation of GEF-H1b in TR-293-KDG cells; format: cell-based; settings: doxycycline-induced, 3-hour exposure, phospho-GEF-H1b ELISA
Source text: A sandwich ELISA method was used to measure the PAK4 kinase activity in whole cells. The level of PAK4-dependent phosphorylation of GEF-H1b can be determined by monitoring the binding of a phosphospecific antibody to GEF-H1b. A modified HEK 293 cell line is used in the bioassay and it has been engineered to overexpress both GEF-H1b and the kinase domain (KD) of PAK4. The KD of PAK4 is inducible in this cell line by tetracycline (Trex system, Invitrogen). The name of this cell line has been designated TR-293-KDG. To establish a phosphorylation event on GEF-H1, cells are induced with doxycycline to express the PAK4 KD. […] Candidate substance effect is measured as the ability to block this phosphorylation event.
ELISA plate was prepared by pre-coating the plates with a capture antibody (α-HA-tag mouse monoclonal antibody), blocked with BSA, and washed in 0.1% tween 20 in tris-buffered saline (TBST). Tissue culture plates (precoated with poly-D-lysine) were seeded with TR-293-KDG cells. The TR-293-KDG Cells were induced to express the PAK4 KD with doxycycline overnight and subsequently & concomitantly treated with candidate substances or diluent for an additional 3-hour, continuous exposure. Cells were then lysed with a modified RIPA buffer supplemented with protease inhibitors. The fresh whole cell lysates were then added to the ELISA plate for 2-hours. Between all subsequent steps plates were washed 4 times with TBST. Detection antibody (recognizing the phospho-specific eptitope on GEF-H1b) was added for 1 hour, followed by addition of an enzyme linked goat α-rabbit secondary antibody for 45 minutes. […] EC50 values were calculated by sigmoid curve fitting using a four-parameter analysis.

[2] = target: PAK4 kinase domain (PAK4 KD) (Homo sapiens (Human), UniProt O96013); experiment: PAK4 kinase domain enzymatic assay (coupled PK/LDH, NADH absorbance at 340 nm); format: biochemical; settings: PAK4 kinase domain, 25 nM PAK4 KD, 0.04 mM ATP, pH 7.5
Sequence of PAK4 kinase domain (PAK4 KD) (O96013 321-572): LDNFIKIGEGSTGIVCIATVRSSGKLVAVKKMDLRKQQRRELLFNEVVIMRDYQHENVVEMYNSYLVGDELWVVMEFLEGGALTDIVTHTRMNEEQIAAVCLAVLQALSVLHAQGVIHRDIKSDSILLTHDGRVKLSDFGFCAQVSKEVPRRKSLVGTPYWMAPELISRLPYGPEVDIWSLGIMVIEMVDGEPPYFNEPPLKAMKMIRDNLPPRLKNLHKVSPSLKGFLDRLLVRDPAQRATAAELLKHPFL

Sequence of PAK4 kinase activity in whole cells (TR-293-KDG, modified HEK 293 overexpressing GEF-H1b and PAK4 KD) (O96013 321-572): as above

| Compound | EC50 [1] [nM] | Ki [2] [nM] |
| --- | --- | --- |
| CCOc1ncc(F)c(Nc2n[nH]c3c2CN(C(=O)O[C@H](CN(C)C)c2ccccc2)C3(C)C)n1 [Example 72, (1S)-2-(dimethylamino)-1-phenylethyl 3-[(2-ethoxy-5-fluoropyrimidin-4-yl)amino]-6,6-dimethyl-4,6-dihydro-pyrrolo[3,4-c]pyrazole-5(1H)-carboxylate] | 4.4 | 16 |
| COc1ncc(F)c(Nc2n[nH]c3c2CN(C(=O)N[C@H](CN(C)C)c2ccccc2)C3(C)C)n1 [Example 66, N-[(1S)-2-(dimethylamino)-1-phenylethyl]-3-[(5-fluoro-2-methoxypyrimidin-4-yl)amino]-6,6-dimethyl-4,6-dihydropyrrolo[3,4-c]pyrazole-5(1H)-carboxamide] | < 3.9 | 170 |
| Cc1nc(Nc2n[nH]c3c2CN(C(=O)N[C@H]2C[C@@H]2c2ccccc2)C3(C)C)c2sccc2n1 (relative stereo) [Example 41, 6,6-dimethyl-3-[(2-methylthieno[3,2-d]pyrimidin-4-yl)amino]-N-[trans-2-phenylcyclopropyl]-4,6-dihydropyrrolo[3,4-c]pyrazole-5(1H)-carboxamide] | 147 | 24 |
| CN(C)C[C@@H](NC(=O)N1Cc2c(Nc3nc(Cl)nc4ccsc34)n[nH]c2C1(C)C)c1ccccc1 [Example 6, 3-[(2-chlorothieno[3,2-d]pyrimidin-4-yl)amino]-N-[(1S)-2-(dimethylamino)-1-phenylethyl]-6,6-dimethyl-4,6-dihydropyrrolo[3,4-c]pyrazole-5(1H)-carboxamide] | 0.94 | 2.8 |
| CN(C)C[C@@H](NC(=O)N1Cc2c(Nc3ncnc4sccc34)n[nH]c2C1(C)C)c1ccccc1 [Example 61, N-[(1S)-2-(dimethylamino)-1-phenylethyl]-6,6-dimethyl-3-(thieno[2,3-d]pyrimidin-4-ylamino)-4,6-dihydropyrrolo[3,4-c]pyrazole-5(1H)-carboxamide] | 19 | 22 |
| CC1(C)c2[nH]nc(Nc3nc(C(F)(F)F)nc4ccsc34)c2CN1C(=O)N[C@@H]1C[C@H]1c1ccccc1 (relative stereo) [Example 45, 6,6-dimethyl-N-[trans-2-phenylcyclopropyl]-3-{[2-(trifluoromethyl)thieno[3,2-d]pyrimidin-4-yl]amino}-4,6-dihydropyrrolo[3,4-c]pyrazole-5(1H)-carboxamide] | 32 | 25 |
| Cc1nc(Nc2n[nH]c3c2CN(C(=O)N[C@@H]2C[C@H]2c2ccccc2)C3(C)C)c2ccccc2n1 (relative stereo) [Example 84, 3-[(2-methylquinazolin-4-yl)amino]-6,6-dimethyl-N-[trans-2-phenylcyclopropyl]-4,6-dihydropyrrolo[3,4-c]pyrazole-5(1H)-carboxamide] | 455 | 34 |
| CC1(C)c2[nH]nc(Nc3ccnc(C#N)n3)c2CN1C(=O)N[C@@H]1C[C@H]1c1ccccc1 (relative stereo) [Example 33, 3-[(2-cyanopyrimidin-4-yl)amino]-6,6-dimethyl-N-[trans-2-phenylcyclopropyl]-4,6-dihydropyrrolo[3,4-c]pyrazole-5(1H)-carboxamide] | 618 | 47 |
| CN(C)C[C@@H](OC(=O)N1Cc2c(Nc3nc(C#N)nc4ccccc34)n[nH]c2C1(C)C)c1ccccc1 [Example 74, (1S)-2-(dimethylamino)-1-phenylethyl 3-[(2-cyanoquinazolin-4-yl)amino]-6,6-dimethyl-4,6-dihydropyrrolo[3,4-c]pyrazole-5(1H)-carboxylate] | < 3.9 | 3.6 |
| Cc1cc2c(Nc3n[nH]c4c3CN(C(=O)N[C@@H]3C[C@H]3c3ccccc3)C4(C)C)ncnc2s1 (relative stereo) [Example 35, 6,6-dimethyl-3-[(6-methylthieno[2,3-d]pyrimidin-4-yl)amino]-N-[trans-2-phenylcyclopropyl]-4,6-dihydropyrrolo[3,4-c]pyrazole-5(1H)-carboxamide] | 262 | 260 |
| CC1(C)c2[nH]nc(Nc3ncnc4sccc34)c2CN1C(=O)N[C@@H]1C[C@H]1c1ccccc1 [Example 50, 6,6-dimethyl-N-[(1R,2S)-2-phenylcyclopropyl]-3-(thieno[2,3-d]pyrimidin-4-ylamino)-4,6-dihydropyrrolo[3,4-c]pyrazole-5(1H)-carboxamide] | 340 | 16 |
| CC1(C)c2[nH]nc(Nc3ccnc(C(F)(F)F)n3)c2CN1C(=O)N[C@H]1C[C@@H]1c1ccccc1 (relative stereo) [Example 30, 6,6-dimethyl-N-[trans-2-phenylcyclopropyl]-3-{[2-(trifluoromethyl)pyrimidin-4-yl]amino}-4,6-dihydropyrrolo[3,4-c]pyrazole-5(1H)-carboxamide] | 968 | 80 |
| COc1nc(Cl)nc(Nc2n[nH]c3c2CN(C(=O)N[C@@H]2C[C@H]2c2ccccc2)C3(C)C)n1 (relative stereo) [Example 10, 3-[(4-chloro-6-methoxy-1,3,5-triazin-2-yl)amino]-6,6-dimethyl-N-[trans-2-phenylcyclopropyl]-4,6-dihydropyrrolo[3,4-c]pyrazole-5(1H)-carboxamide] | > 4000 | 120 |
| Cc1csc2c(Nc3n[nH]c4c3CN(C(=O)N[C@H]3C[C@@H]3c3ccccc3)C4(C)C)ncnc12 (relative stereo) [Example 49, 6,6-dimethyl-3-[(7-methylthieno[3,2-d]pyrimidin-4-yl)amino]-N-[trans-2-phenylcyclopropyl]-4,6-dihydropyrrolo[3,4-c]pyrazole-5(1H)-carboxamide] | 332 | 160 |
| Cc1nc(Nc2n[nH]c3c2CN(C(=O)N[C@@H]2C[C@H]2c2ccccc2)C3(C)C)cc(N(C)C)n1 (relative stereo) [Example 38, 3-{[6-(dimethylamino)-2-methylpyrimidin-4-yl]amino}-6,6-dimethyl-N-[trans-2-phenylcyclopropyl]-4,6-dihydropyrrolo[3,4-c]pyrazole-5(1H)-carboxamide] | 1470 | 96 |
| CCOc1ncc(F)c(Nc2n[nH]c3c2CN(C(=O)N[C@@H]2C[C@H]2c2ccccc2)C3(C)C)n1 (relative stereo) [Example 37, 3-[(2-ethoxy-5-fluoropyrimidin-4-yl)amino]-6,6-dimethyl-N-[trans-2-phenylcyclopropyl]-4,6-dihydropyrrolo[3,4-c]pyrazole-5(1H)-carboxamide] | 805 | 270 |
| CCOc1ncc(F)c(Nc2n[nH]c3c2CN(C(=O)N[C@H](CN(C)C)c2ccccc2)C3(C)C)n1 [Example 59, N-[(1S)-2-(dimethylamino)-1-phenylethyl]-3-[(2-ethoxy-5-fluoropyrimidin-4-yl)amino]-6,6-dimethyl-4,6-dihydropyrrolo[3,4-c]pyrazole-5(1H)-carboxamide] | 2.4 | 170 |
| Cc1ncnc(Nc2n[nH]c3c2CN(C(=O)N[C@H](CN(C)C)c2ccccc2)C3(C)C)c1F [Example 56, N-[(1S)-2-(dimethylamino)-1-phenylethyl]-3-[(5-fluoro-6-methylpyrimidin-4-yl)amino]-6,6-dimethyl-4,6-dihydropyrrolo[3,4-c]pyrazole-5(1H)-carboxamide] | 570 | 240 |
| CN(C)C[C@@H](NC(=O)N1Cc2c(Nc3nc(C#N)nc4ccccc34)n[nH]c2C1(C)C)c1ccccc1 [Example 64, 3-[(2-cyanoquinazolin-4-yl)amino]-N-[(1S)-2-(dimethylamino)-1-phenylethyl]-6,6-dimethyl-4,6-dihydropyrrolo[3,4-c]pyrazole-5(1H)-carboxamide] | < 3.9 | 3 |
| CN(C)C[C@@H](OC(=O)N1Cc2c(Nc3ccnc(C#N)n3)n[nH]c2C1(C)C)c1ccccc1 [Example 70, (1S)-2-(dimethylamino)-1-phenylethyl 3-[(2-cyanopyrimidin-4-yl)amino]-6,6-dimethyl-4,6-dihydropyrrolo [3,4-c]pyrazole-5(1H)-carboxylate] | 1.9 | 8.8 |
| CN(C)c1nc(Cl)nc(Nc2n[nH]c3c2CN(C(=O)N[C@@H]2C[C@H]2c2ccccc2)C3(C)C)n1 (relative stereo) [Example 15, 3-{[4-chloro-6-(dimethylamino)-1,3,5-triazin-2-yl]amino}-6,6-dimethyl-N-[trans-2-phenylcyclopropyl]-4,6-dihydropyrrolo [3,4-c]pyrazole-5(1H)-carboxamide] | 500 | 90 |
| CN(C)C[C@@H](NC(=O)N1Cc2c(Nc3ncnc4ccsc34)n[nH]c2C1(C)C)c1ccccc1 [Example 5, N-[(1S)-2-(dimethylamino)-1-phenylethyl]-6,6-dimethyl-3-(thieno[3,2-d]pyrimidin-4-ylamino)-4,6-dihydropyrrolo[3,4-c]pyrazole-5(1H)-carboxamide] | 87 | 220 |
